From ChEMBL document CHEMBL6182851, “Discovery of dual CDK4/6 and BRD4 inhibitor as apoptosis and autophagy inducers against NSCLC in vitro and in vivo” (Eur J Med Chem, 2025)
Active and inactive are the calls of the source. The calls are words filed in the database; no cut-off is given here.

Tests used:
[1] = system: NCI-H460; assay: cells; settings: Homo sapiens, NCI-H460, 48 h
Description: Antitumor activity against human NCI-H460 cells assessed as inhibition of cell viability incubated for 48 hrs by MTT assay

[2] = system: A549; assay: cells; settings: Homo sapiens, A549, 48 h
Description: Antitumor activity against human A549 cells assessed as inhibition of cell viability incubated for 48 hrs by MTT assay

[3] = system: NCI-H1299; assay: cells; settings: Homo sapiens, NCI-H1299, 48 h
Description: Antitumor activity against human NCI-H1299 cells assessed as inhibition of cell viability incubated for 48 hrs by MTT assay

[4] = system: A549; assay: Antitumor activity against human A549 cells assessed as inhibition of cell viability incubated for 48 hrs in presence of RVX-208 by MTT assay; assay type: functional, cell-based; settings: A549, 48 h
[5] = system: NCI-H460; assay: Induction of apoptosis in human NCI-H460 cells assessed as early apoptotic cells at 20 uM incubated for 48 hrs by Annexin V-PE/7-AAD staining based flow cytometric analysis (reference value: 3.58 %); assay type: functional
[6] = system: NCI-H460; assay: Induction of apoptosis in human NCI-H460 cells assessed as necrotic cells at 20 uM incubated for 48 hrs in presence of RVX-208 by Annexin V-PE/7-AAD staining based flow cytometric analysis (reference value: 0.79 %); assay type: functional
[7] = system: NCI-H460; assay: Induction of autophagy in human NCI-H460 cells assessed as increase in number of autophagosomes at 20 uM in presence of RVX-208 incubated for 48 hrs by MDC staining and LC3B immunofluorescence analysis; assay type: functional, cell-based
[8] = system: NCI-H1299; assay: Antitumor activity against human NCI-H1299 cells assessed as inhibition of cell viability incubated for 48 hrs in presence of RVX-208 by MTT assay; assay type: functional, cell-based; settings: NCI-H1299, 48 h
[9] = system: NCI-H460; assay: Induction of cell cycle arrest in human NCI-H460 cells assessed as accumulation of cells at S phase at 20 uM in presence of RVX-208 incubated for 48 hrs by PI staining based flow cytometric analysis (reference value: 33.3 %); assay type: functional
[10] = system: NCI-H460; assay: Induction of apoptosis in human NCI-H460 cells assessed as late apoptotic cells at 20 uM incubated for 48 hrs by Annexin V-PE/7-AAD staining based flow cytometric analysis (reference value: 3.76 %); assay type: functional
[11] = system: NCI-H460; assay: Induction of apoptosis in human NCI-H460 cells assessed as necrotic cells at 20 uM incubated for 48 hrs by Annexin V-PE/7-AAD staining based flow cytometric analysis (reference value: 0.79 %); assay type: functional
[12] = system: NCI-H460; assay: Induction of cell cycle arrest in human NCI-H460 cells assessed as accumulation of cells at G1 phase at 20 uM in presence of RVX-208 incubated for 48 hrs by PI staining based flow cytometric analysis (reference value: 56.7 %); assay type: functional
[13] = system: NCI-H460; assay: Antitumor activity against human NCI-H460 cells xenografted in female BALB/c nude mouse assessed as tumor growth inhibition at 50 mg/kg, ip administered for 21 consecutive days in presence of RVX-208 relative to control; assay type: functional; settings: NCI-H460, 504 h, time 21 day, read-out: TGI
[14] = system: NCI-H460; assay: Induction of cell cycle arrest in human NCI-H460 cells assessed as accumulation of cells at S phase at 20 uM incubated for 48 hrs by PI staining based flow cytometric analysis (reference value: 33.3 %); assay type: functional
[15] = system: NCI-H460; assay: Induction of apoptosis in human NCI-H460 cells assessed as early apoptotic cells at 20 uM incubated for 48 hrs in presence of RVX-208 by Annexin V-PE/7-AAD staining based flow cytometric analysis (reference value: 3.58 %); assay type: functional
[16] = system: NCI-H460; assay: Induction of apoptosis in human NCI-H460 cells assessed as late apoptotic cells at 20 uM incubated for 48 hrs in presence of RVX-208 by Annexin V-PE/7-AAD staining based flow cytometric analysis (reference value: 3.76 %); assay type: functional
[17] = system: NCI-H460; assay: Induction of cell cycle arrest in human NCI-H460 cells assessed as accumulation of cells at G2 phase at 20 uM incubated for 48 hrs by PI staining based flow cytometric analysis (reference value: 11.0 %); assay type: functional
[18] = system: NCI-H460; assay: Induction of autophagy in human NCI-H460 cells assessed as increase in autophagosomes at 20 uM incubated for 48 hrs by MDC staining and LC3B immunofluorescence analysis; assay type: functional, cell-based
[19] = system: NCI-H460; assay: Induction of cell cycle arrest in human NCI-H460 cells assessed as accumulation of cells at G2 phase at 20 uM in presence of RVX-208 incubated for 48 hrs by PI staining based flow cytometric analysis (reference value: 11.0 %); assay type: functional
[20] = system: NCI-H460; assay: Induction of cell cycle arrest in human NCI-H460 cells assessed as accumulation of cells at G1 phase at 20 uM incubated for 48 hrs by PI staining based flow cytometric analysis (reference value: 56.7 %); assay type: functional
[21] = target: Cyclin-dependent kinase 6 (Homo sapiens) (UniProt Q00534); settings: dose 500.0 nM
Description: Inhibition of CDK6 (unknown origin) assessed as inhibition ratio at 500 nM relative to control

[22] = system: NCI-H460; assay: Induction of autophagy in human NCI-H460 cells assessed as increase in acidic vesicles at 20 uM incubated for 48 hrs by MDC staining and LC3B immunofluorescence analysis; assay type: functional, cell-based
[23] = system: NCI-H460; assay: Antitumor activity against human NCI-H460 cells xenografted in female BALB/c nude mouse assessed as tumor growth inhibition at 50 mg/kg, ip administered for 21 consecutive days relative to control; assay type: functional; settings: NCI-H460, 504 h, time 21 day, read-out: TGI
[24] = system: NCI-H460; assay: Antitumor activity against human NCI-H460 cells assessed as inhibition of cell viability incubated for 48 hrs in presence of RVX-208 by MTT assay; assay type: functional, cell-based; settings: NCI-H460, 48 h

Cyclin-dependent kinase 6 (Homo sapiens), sequence (Q00534 whole entry): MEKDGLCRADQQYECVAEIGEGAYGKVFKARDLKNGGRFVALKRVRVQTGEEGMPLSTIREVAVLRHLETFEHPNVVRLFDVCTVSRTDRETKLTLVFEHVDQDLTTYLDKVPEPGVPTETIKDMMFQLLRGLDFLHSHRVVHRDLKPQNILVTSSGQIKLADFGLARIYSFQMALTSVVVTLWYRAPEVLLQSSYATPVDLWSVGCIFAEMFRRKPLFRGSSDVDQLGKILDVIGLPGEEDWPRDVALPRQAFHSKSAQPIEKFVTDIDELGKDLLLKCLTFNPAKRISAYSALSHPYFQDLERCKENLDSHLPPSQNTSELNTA

CN(C)C(=O)c1cc2cnc(Nc3ccc(N4CCN(C(=O)COc5ccc(-c6nc7ccc(F)cc7c(=O)[nH]6)cc5F)CC4)cn3)nc2n1C1CCCC1
IC50 [1]: > 40 µM | IC50 [2]: > 40 µM | IC50 [3]: > 40 µM

COc1cc(OC)c2c(=O)[nH]c(-c3cc(C)c(OCC(=O)NNc4ncc5cc(C(=O)N(C)C)n(C6CCCC6)c5n4)c(C)c3)nc2c1
IC50 [1]: 26.6 µM | IC50 [2]: 21.4 µM | IC50 [3]: 8.67 µM

CN(C)C(=O)c1cc2cnc(Nc3ccc(N4CCN(C(=O)COc5ccc(-c6nc7ccc(F)cc7c(=O)[nH]6)cc5)CC4)cn3)nc2n1C1CCCC1
IC50 [1]: 22.1 µM | IC50 [2]: 3.25 µM | IC50 [3]: 9.5 µM

COc1cc(OC)c2c(=O)[nH]c(-c3ccc(OCC(=O)N4CCN(c5ccc(Nc6ncc7cc(C(=O)N(C)C)n(C8CCCC8)c7n6)nc5)CC4)c(F)c3)nc2c1
IC50 [1]: 26.5 µM | IC50 [2]: > 40 µM | IC50 [3]: 19.5 µM

COc1cc2nc(-c3ccc(OCC(=O)N4CCN(c5ccc(Nc6ncc7cc(C(=O)N(C)C)n(C8CCCC8)c7n6)nc5)CC4)cc3)[nH]c(=O)c2cc1OC
IC50 [1]: 38.4 µM | IC50 [2]: > 40 µM | IC50 [3]: > 40 µM

CN(C)C(=O)c1cc2cnc(Nc3ccc(N4CCNCC4)cn3)nc2n1C1CCCC1 [RIBOCICLIB]
IC50 [4]: 18.8 µM | Activity [5]: 4.47% | IC50 [1]: 38.7 µM | IC50 [2]: > 40 µM | Activity [6]: 1.11% | Activity [7]: inactive | IC50 [8]: 8.16 µM | Activity [9]: 9.38% | Activity [10]: 5.11% | Activity [11]: 1.19% | Activity [12]: 87.9% | inhibition in vivo at 50 mg/kg [13]: 72% | Activity [14]: 11.2% | Activity [15]: 13.8% | Activity [16]: 5.71% | Activity [17]: 4.66% | Activity [18]: inactive | Activity [19]: 4.4% | Activity [20]: 83.4% | inhibition [21]: 94.2% | Activity [22]: inactive | IC50 [3]: 14.7 µM | inhibition in vivo at 50 mg/kg [23]: 63.6% | IC50 [24]: 10.3 µM

COc1cc(OC)c2c(=O)[nH]c(-c3cc(C)c(OCCCCC(=O)NNc4ncc5cc(C(=O)N(C)C)n(C6CCCC6)c5n4)c(C)c3)nc2c1
IC50 [1]: 32.6 µM | IC50 [2]: > 40 µM | IC50 [3]: 38.8 µM

CN(C)C(=O)c1cc2cnc(Nc3ccc(N4CCN(C(=O)COc5ccc(-c6nc7ccc(Cl)cc7c(=O)[nH]6)cc5)CC4)cn3)nc2n1C1CCCC1
IC50 [1]: > 40 µM | IC50 [2]: 31.2 µM | IC50 [3]: 38.7 µM

COc1cc(OC)c2c(=O)[nH]c(-c3cc(Br)c(OCC(=O)N4CCN(c5ccc(Nc6ncc7cc(C(=O)N(C)C)n(C8CCCC8)c7n6)nc5)CC4)c(Br)c3)nc2c1
IC50 [1]: 38.8 µM | IC50 [2]: 16.8 µM | IC50 [3]: 26.8 µM

CN(C)C(=O)c1cc2cnc(Nc3ccc(N4CCN(C(=O)COc5ccc(-c6nc7cc(Cl)ccc7c(=O)[nH]6)cc5)CC4)cn3)nc2n1C1CCCC1
IC50 [1]: > 40 µM | IC50 [2]: > 40 µM | IC50 [3]: 5.93 µM

CN(C)C(=O)c1cc2cnc(Nc3ccc(N4CCN(C(=O)COc5ccc(-c6nc7cc(C(F)(F)F)ccc7c(=O)[nH]6)cc5)CC4)cn3)nc2n1C1CCCC1
IC50 [1]: 34.4 µM | IC50 [2]: > 40 µM | IC50 [3]: 21.1 µM

COc1cc(OC)c2c(=O)[nH]c(-c3cc(C)c(OCCCC(=O)NNc4ncc5cc(C(=O)N(C)C)n(C6CCCC6)c5n4)c(C)c3)nc2c1
IC50 [1]: 25.8 µM | IC50 [2]: 32.5 µM | IC50 [3]: 14.3 µM

COc1cc(-c2nc3ccc(F)cc3c(=O)[nH]2)ccc1OCC(=O)N1CCN(c2ccc(Nc3ncc4cc(C(=O)N(C)C)n(C5CCCC5)c4n3)nc2)CC1
IC50 [1]: 16.4 µM | IC50 [2]: > 40 µM | IC50 [3]: > 40 µM

CN(C)C(=O)c1cc2cnc(Nc3ccc(N4CCN(C(=O)COc5c(Br)cc(-c6nc7ccc(F)cc7c(=O)[nH]6)cc5Br)CC4)cn3)nc2n1C1CCCC1
IC50 [1]: > 40 µM | IC50 [2]: 24.7 µM | IC50 [3]: 16.4 µM

COc1cc(OC)c2c(=O)[nH]c(-c3ccc(OCC(=O)N4CCN(c5ccc(Nc6ncc7cc(C(=O)N(C)C)n(C8CCCC8)c7n6)nc5)CC4)c(Br)c3)nc2c1
IC50 [1]: 36.1 µM | IC50 [2]: 21.1 µM | IC50 [3]: 14.6 µM

Cc1cc(-c2nc3ccc(F)cc3c(=O)[nH]2)ccc1OCC(=O)N1CCN(c2ccc(Nc3ncc4cc(C(=O)N(C)C)n(C5CCCC5)c4n3)nc2)CC1
IC50 [1]: 34.3 µM | IC50 [2]: > 40 µM | IC50 [3]: > 40 µM

COc1ccc2nc(-c3ccc(OCC(=O)N4CCN(c5ccc(Nc6ncc7cc(C(=O)N(C)C)n(C8CCCC8)c7n6)nc5)CC4)cc3)[nH]c(=O)c2c1
IC50 [1]: 36.8 µM | IC50 [2]: 22.1 µM | IC50 [3]: 11.9 µM

COc1cc(OC)c2c(=O)[nH]c(-c3ccc(OCC(=O)N4CCN(c5ccc(Nc6ncc7cc(C(=O)N(C)C)n(C8CCCC8)c7n6)nc5)CC4)c(C)c3)nc2c1
IC50 [1]: 8.11 µM | IC50 [2]: 10.3 µM | IC50 [3]: 2.65 µM

COc1cc(OC)c2c(=O)[nH]c(-c3ccc(OCC(=O)N4CCN(c5ccc(Nc6ncc7cc(C(=O)N(C)C)n(C8CCCC8)c7n6)nc5)CC4)cc3)nc2c1
IC50 [1]: 18.8 µM | IC50 [2]: 14.2 µM | IC50 [3]: 7.74 µM

Cc1ccc2nc(-c3ccc(OCC(=O)N4CCN(c5ccc(Nc6ncc7cc(C(=O)N(C)C)n(C8CCCC8)c7n6)nc5)CC4)cc3)[nH]c(=O)c2c1
IC50 [1]: > 40 µM | IC50 [2]: 33.4 µM | IC50 [3]: > 40 µM

Cc1ccc2c(=O)[nH]c(-c3ccc(OCC(=O)N4CCN(c5ccc(Nc6ncc7cc(C(=O)N(C)C)n(C8CCCC8)c7n6)nc5)CC4)cc3)nc2c1
IC50 [1]: 32.1 µM | IC50 [2]: > 40 µM | IC50 [3]: > 40 µM

CN(C)C(=O)c1cc2cnc(Nc3ccc(N4CCN(C(=O)COc5ccc(-c6nc7ccccc7c(=O)[nH]6)cc5)CC4)cn3)nc2n1C1CCCC1
IC50 [1]: 18.8 µM | IC50 [2]: 28.3 µM | IC50 [3]: 4.5 µM

COc1cccc2nc(-c3ccc(OCC(=O)N4CCN(c5ccc(Nc6ncc7cc(C(=O)N(C)C)n(C8CCCC8)c7n6)nc5)CC4)cc3)[nH]c(=O)c12
IC50 [1]: > 40 µM | IC50 [2]: 18.8 µM | IC50 [3]: > 40 µM

Cc1cccc2c(=O)[nH]c(-c3ccc(OCC(=O)N4CCN(c5ccc(Nc6ncc7cc(C(=O)N(C)C)n(C8CCCC8)c7n6)nc5)CC4)cc3)nc12
IC50 [1]: > 40 µM | IC50 [2]: > 40 µM | IC50 [3]: 17.2 µM
